The values below come from US20050209157A1, “Short bioactive peptides and methods for their use” (priority 2001, published 2005).

One data set has as its system S. aureus (MRSA). It is filed as cell-based, Staphylococcus aureus. To be noted: mean of three; 16 to 20 hours at 35° C.
The next data set concerns S. epidermidis C621. In kind it is cell-based, Staphylococcus epidermidis. To be noted: mean of three; 16 to 20 hours at 35° C.
In a further data set the test system is S. pyogenes M76. Briefly: Antimicrobial assays II, NCCLS broth microdilution MIC. In kind it is cell-based, Streptococcus pyogenes. The conditions noted are these: mean of three; 16 to 20 hours at 35° C.
A further data set deals with S. pyogenes ATCC19615. Described as above. In kind it is cell-based, Streptococcus pyogenes. To be noted: mean of three, in µg/mL.
A further data set deals with S. pneumoniae C719. The data set is described as above. It is filed as cell-based, Streptococcus pneumoniae. To be noted: mean of three, in µg/mL.
A further data set can be described thus: in vitro. It is filed as cell-based, human. To be noted: human, human red blood cells, pH 7, hemolytic assay, concentration at 50% hemolysis, 1 hour at 37° C.; read-out: LD50.
In data set [1] the test system is hairless rat skin burn wound. The data set is described as follows: In vivo wound healing, TCA chemically induced skin burn wound. To be noted: for Epidermal thickening / Fibroblast cells in test area / Inflammatory response area / Leukocyte cells in test area / Wound closure: rat model, TCA burn treated by peptide; for Wound closure: 26 days. The text has this: The hairless rat was chosen as a suitable test model. Female hairless rats of 100 to 150 grams weight and 8 to 12 weeks age were used in the study.
As an alternative, 70% trichloroacetic (TCA) dissolved in 70% ethanol was employed to induce the dermal erosion patches. […] As the chemical burn agent, the TCA treatment inflicted on the rats far less trauma and mortality than occurred with the Phenol model.
The experimental Protocol procedure steps were as follows: • 1. The animal was anesthetized (40 mg/kg Phenobarbital). • 2. Color photographs of the animal's back (with six separate peels) were taken before each treatment and daily thereafter. • 3. Rat skin surface was prepared by wiping with 70% ethanol. Filter paper discs (1.1 cm diameter) were soaked in 70% TCA/ethanol. • 4. The discs were placed on the back of the hairless rat for 30 minutes [6 disks providing for 2 control (no peptide treatment) disks and 4 disks for peels to receive peptide treatment.] • 5. After a 30 minute burn the discs were removed. Twenty four hours later, different peptide solutions (1500 ppm in saline) were applied to four peels, and saline was applied to the two control peels. • 6. Peptide solutions (and saline for the controls) were applied to the six wounds with a soft brush each day thereafter. • 7. It took approximately one month for the wounds to heal (complete skin closure with stabilized epidermis), after which the animal was sacrificed. • 8. The treated skin was harvested, section stained with trichrome, and mounted on slides.
The percentage of wound closure for each peel (six sites) was measured each day until the animal was sacrificed. The percentage closure was determined by measuring on the animal photographs the area of the remaining scab relative to the area of the initial scar after the burn. These measurements were made by digitizing and analyzing the peels using the Sigma Plot ProScan 4 program.
This provided a measure of the post-TCA burn treatment of the inflammatory response in each peel site.
The extent of epidermal thickening (hyperkeratosis) at each site was also determined by measurement with the Sigma Plot program applied to the stained section slides of the various wound areas and the normal untreated skin (control) surrounding the peels. At magnifications of 100× to 320×, the microphotographs of the color slides provided a powerful tool for such quantification of the extent of hyperkeratosis evident in each peel.
Treatment of the section slides with selective stains produced identifiable evidence of the presence of both leukocyte and fibroblast cells in the wound areas. This was also quantified by the Sigma Plot program.
The above described animal model and protocols were employed in the testing of approximately 20 of the peptides listed in Table 48 (and other peptides for comparison) as preferred FLAK peptides for wound healing.

A further data set has as its system Pseudomonas aeruginosa. The data set is described as follows: Serum inactivation of peptides, serum MIC. In kind it is cell-based. The conditions noted are these: for MIC 30 min treatment: sheep serum 37° C. 30 minutes; for MIC 2 hr treatment: sheep serum 37° C. 2 hours. As for the experimental part: Subsequently, the serum MICs against Pseudomonas aeruginosa were conducted to determine extent of serum inactivation of the peptides.

A short description of data set [2]: Solubility of peptides in sheep serum. It is filed as physicochemical.
For a further data set, the system named is collagen. The data set is described as follows: Collagen stimulation, ELISA on fibroblast cell lines. It is filed as cell-based. Here is the method:
(§1) Fibroblast cell lines were cultured under standard conditions and assayed for collagen and laminin using an ELISA system manufactured by Panvera (Madison, Wis.). Antibodies for collagen and laminin manufactured by Takara Shuzo Co., Ltd Japan. […] The other three peptides tested neither stimulated nor inhibited production (i.e. no effect was observed).

The next data set relates to laminin. The data set is described as follows: Laminin stimulation, ELISA on fibroblast cell lines. In kind it is cell-based. As for the experimental part:
as §1

The test system of another data set is P. aeruginosa H374. It is filed as cell-based, Pseudomonas aeruginosa. To be noted: mean of three; 16 to 20 hours at 35° C.

Entries after “also recorded” stand apart in the source; their conditions may differ. No end group written: not given here. Some results are limits rather than exact numbers.

The term Solubility denotes the concentration that dissolves in the medium under given conditions. A higher Solubility goes with much dissolved substance. In the case of FALKALKKLKKALKKAL-NH2 [P153], the S. aureus (MRSA) MIC in the data set with S. aureus (MRSA) turned out to be 16 µg/mL. In the data set on S. epidermidis C621, this substance yielded a S. epidermidis C621 MIC of 4 µg/mL. Moreover, the S. pyogenes M76 MIC in the data set with S. pyogenes M76 stood at 2 µg/mL. Further, the “S. pyogenes MIC” value with S. pyogenes ATCC19615 was 2. Further, the “S. pneumoniae MIC” value with S. pneumoniae C719 amounted to 8. Also, the HC50 at 1 h in “in vitro” was 800 µg/mL. In addition, in data set [1] (hairless rat, full wound closure at 26 days), the “rate of wound closure” value was “small advantage in rate of wound closure over the other peptides and no peptide”. In addition, the “ability to limit post-TCA burn inflammatory responses” value in data set [1] (hairless rat, peptide solutions 1500 ppm in saline, topical daily) is given as “superior in this respect”. Moreover, the “hyperkeratosis (epidermal thickening)” value in data set [1] (hairless rat, peptide solutions 1500 ppm in saline, topical daily, listed as SEQ ID NO:115) is “lowest evidence of hyperkeratosis (epidermal thickening); also recorded: substantially no hyperkeratosis as compared to the TCA burn untreated control”. Moreover, in [1], the Epidermal thickening is recorded as 25 % of control (TCA only), the “Fibroblast cells in test area” value was 350 % of normal skin, the Inflammatory response area is recorded as 7 % of healed scar and the “Leukocyte cells in test area” value is recorded as 235 % of normal skin. In data set [1], the Wound closure is on record as 99.1 % of initial wound. In the data set with Pseudomonas aeruginosa (first of two columns), the “MIC 30 min treatment” value was 10 µg/mL and the “MIC 2 hr treatment” value stood at 20 µg/mL. Moreover, in the data set on Pseudomonas aeruginosa (second of two columns), the “MIC 30 min treatment” value was 5 µg/mL and the “MIC 2 hr treatment” value stood at 5 µg/mL. Also, the “change of activity by exposure to serum (serum MIC against Pseudomonas aeruginosa)” value in the data set with Pseudomonas aeruginosa (sheep serum, […], 37° C. for 30 minutes or 2 hours) is listed as “only modestly decreased”. Further, the Solubility result in [2] (sheep serum, […], 70% serum) is on record as “Soluble”. This substance yielded a Solubility in data set [2] (sheep, 70% sheep serum) not below 1280 µg/mL. The substance further had a Collagen stimulation in the data set on collagen of 120%. The Laminin stimulation in the data set on laminin is recorded as 32%.

“MPKWKVFKKIEKVGRNIRNGIVKAGPAIAVLGEAKALG-NH2 [P12, reference compound]”: the P. aeruginosa H374 MIC in the data set on P. aeruginosa H374 was determined as 8 µg/mL. Also, the Collagen stimulation in the data set on collagen was 0%. Besides, the Laminin stimulation in the data set with laminin was 0%.

The substance “FAVGLRAIKRALKKLRRGVRKVAKDL-NH2 [P157, reference compound]” returned a S. aureus (MRSA) MIC with S. aureus (MRSA) of 32 µg/mL. This substance also came in with a S. epidermidis C621 MIC in the data set with S. epidermidis C621 of 4 µg/mL. The same substance displayed a S. pyogenes M76 MIC in the data set with S. pyogenes M76 of 8 µg/mL. Moreover, the “S. pyogenes MIC” value with S. pyogenes ATCC19615 amounted to 8. Also, the “S. pneumoniae MIC” value in the data set with S. pneumoniae C719 came to 16. In the data set on P. aeruginosa H374, this substance came in with a P. aeruginosa H374 MIC of 8 µg/mL. Also, the HC50 at 1 h in “in vitro” was determined as 850 µg/mL. Further, in data set [1], the Epidermal thickening is 80 % of control (TCA only), the “Fibroblast cells in test area” value is 450 % of normal skin, the Inflammatory response area is 25 % of healed scar and the “Leukocyte cells in test area” value was 265 % of normal skin. For the same substance, the Wound closure in data set [1] was 95.2 % of initial wound.
